Publication PMC6599797, “Functional characterization of three flavonoid glycosyltransferases from Andrographis paniculata” (Royal Society Open Science, 2019)

How the values were obtained:
Type in all cases: biochemical
[1] = target: T1, ApUFGT3 (Andrographis paniculata, UniProt A0A8E3S6A8); assay: UPLC / Q-TOF-MS conversion assay; conditions: UDP-glucose 3200 µM, aglycone 320 µM; Tris-HCl pH 8.0, 40 °C, 6 h
T1 construct: gene UGT4
T1 sequence (A0A8E3S6A8 1-463): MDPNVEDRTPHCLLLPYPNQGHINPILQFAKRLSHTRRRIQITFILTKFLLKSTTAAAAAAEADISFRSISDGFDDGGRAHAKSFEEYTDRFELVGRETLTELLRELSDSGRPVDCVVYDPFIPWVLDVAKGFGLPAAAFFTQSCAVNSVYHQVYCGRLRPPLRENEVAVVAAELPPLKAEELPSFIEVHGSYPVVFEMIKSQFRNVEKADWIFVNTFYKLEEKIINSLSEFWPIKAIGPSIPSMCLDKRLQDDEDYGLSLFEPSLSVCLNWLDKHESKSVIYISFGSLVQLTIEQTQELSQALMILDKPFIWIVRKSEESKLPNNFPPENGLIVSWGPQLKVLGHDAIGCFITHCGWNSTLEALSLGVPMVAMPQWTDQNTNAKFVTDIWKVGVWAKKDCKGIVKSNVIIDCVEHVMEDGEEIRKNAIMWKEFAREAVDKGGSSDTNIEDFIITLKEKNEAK

[2] = target: T2, ApUFGT1 (Andrographis paniculata, UniProt A0A8E3MB50); assay: UPLC / Q-TOF-MS conversion assay; conditions: UDP-glucose 3200 µM, aglycone 320 µM; Tris-HCl pH 8.0, 40 °C, 6 h
T2 construct: gene UGT2
T2 sequence (A0A8E3MB50 1-485): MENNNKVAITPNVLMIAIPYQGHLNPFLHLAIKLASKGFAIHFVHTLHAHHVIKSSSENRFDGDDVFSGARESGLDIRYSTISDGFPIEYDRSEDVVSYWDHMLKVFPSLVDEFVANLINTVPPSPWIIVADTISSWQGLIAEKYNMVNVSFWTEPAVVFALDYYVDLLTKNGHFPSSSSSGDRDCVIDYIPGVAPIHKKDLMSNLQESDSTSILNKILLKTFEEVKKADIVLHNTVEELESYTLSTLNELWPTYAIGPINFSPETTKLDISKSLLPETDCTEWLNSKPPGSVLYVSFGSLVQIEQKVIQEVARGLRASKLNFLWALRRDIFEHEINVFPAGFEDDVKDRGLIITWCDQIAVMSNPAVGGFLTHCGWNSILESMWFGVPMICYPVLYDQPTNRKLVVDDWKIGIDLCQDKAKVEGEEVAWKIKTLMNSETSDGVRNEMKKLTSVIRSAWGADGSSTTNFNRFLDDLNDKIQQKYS

[3] = target: T3, ApUFGT2 (Andrographis paniculata, UniProt A0A8E3S624); assay: UPLC / Q-TOF-MS conversion assay; conditions: UDP-glucose 3200 µM, aglycone 320 µM; Tris-HCl pH 8.0, 40 °C, 6 h
T3 construct: gene UGT8
T3 sequence (A0A8E3S624 1-479): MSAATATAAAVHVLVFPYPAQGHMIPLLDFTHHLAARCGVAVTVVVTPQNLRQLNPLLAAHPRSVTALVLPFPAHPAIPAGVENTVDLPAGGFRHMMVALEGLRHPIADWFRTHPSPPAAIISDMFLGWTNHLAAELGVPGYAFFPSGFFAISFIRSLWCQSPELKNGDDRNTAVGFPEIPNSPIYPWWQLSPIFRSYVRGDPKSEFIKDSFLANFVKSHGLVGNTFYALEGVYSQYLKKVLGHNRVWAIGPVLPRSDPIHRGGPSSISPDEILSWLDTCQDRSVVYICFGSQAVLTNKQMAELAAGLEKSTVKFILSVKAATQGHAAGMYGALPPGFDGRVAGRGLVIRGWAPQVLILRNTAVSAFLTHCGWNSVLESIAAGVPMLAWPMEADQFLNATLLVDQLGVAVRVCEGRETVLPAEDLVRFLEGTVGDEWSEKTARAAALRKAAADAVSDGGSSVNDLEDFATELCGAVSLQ

[4] = target: T1, ApUFGT3; assay: UPLC conversion assay; conditions: UDP-glucose donor; 50 mM Tris-HCl pH 8.0, 40 °C
[5] = target: T3, ApUFGT2; assay: UPLC conversion assay; conditions: UDP-glucose donor; 50 mM Tris-HCl pH 8.0, 40 °C
[6] = target: T2, ApUFGT1; assay: UPLC conversion assay; conditions: UDP-glucose donor; 50 mM Tris-HCl pH 8.0, 40 °C

Row | SMILES | UPLC / Q-TOF-MS conversion assay [1] | UPLC / Q-TOF-MS conversion assay [2] | UPLC / Q-TOF-MS conversion assay [3] | UPLC conversion assay [4] | UPLC conversion assay [5] | UPLC conversion assay [6]
1 | O=c1cc(-c2ccc(O)cc2)oc2cc(O)cc(O)c12 [compound 1, apigenin] | Product peak 1c was confirmed as apigetrin, namely, apigenin 7-O-glucoside | Product peak 1c was confirmed as apigetrin, namely, apigenin 7-O-glucoside | Product peak 1c was confirmed as apigetrin, namely, apigenin 7-O-glucoside |  |  | 
2 | COc1c(O)cc(O)c2c(=O)cc(-c3ccccc3)oc12 [wogonin] |  |  |  | glycosylation of wogonin catalysed by ApUFGTs | glycosylation of wogonin catalysed by ApUFGTs | glycosylation of wogonin catalysed by ApUFGTs
